# Molecular target: Beta-secretase 1 (Homo sapiens, UniProt P56817)
# Test: Inhibition of BACE1 (unknown origin) using Rh-EVNNLDAEFK-Quencher substrate incubated for 3 hrs by FRET assay
# Beta-secretase 1, sequence (P56817 whole entry): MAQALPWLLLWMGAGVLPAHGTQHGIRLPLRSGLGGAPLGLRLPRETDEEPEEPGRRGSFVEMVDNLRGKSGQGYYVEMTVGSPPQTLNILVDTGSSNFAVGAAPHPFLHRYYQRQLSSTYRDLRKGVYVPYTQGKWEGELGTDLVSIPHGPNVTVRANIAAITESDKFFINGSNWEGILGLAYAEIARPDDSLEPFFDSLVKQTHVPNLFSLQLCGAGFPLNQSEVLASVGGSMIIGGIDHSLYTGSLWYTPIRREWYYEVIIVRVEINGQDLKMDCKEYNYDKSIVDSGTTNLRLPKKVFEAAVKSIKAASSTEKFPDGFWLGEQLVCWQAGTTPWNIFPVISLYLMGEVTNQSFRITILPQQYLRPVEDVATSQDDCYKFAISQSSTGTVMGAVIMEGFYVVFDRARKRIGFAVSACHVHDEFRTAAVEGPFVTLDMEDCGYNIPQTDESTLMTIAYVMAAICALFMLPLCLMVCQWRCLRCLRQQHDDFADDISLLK
row,IC50,Structure (SMILES)
1,2 µM,C/C(=C\CC/C(C)=C/Cc1cc(C(=O)O)ccc1O)CC/C=C(\C)CC/C=C(\C)C(=O)O
2,14.7 µM,C=C(CC/C=C(\C)CC/C=C(\C)C(=O)O)C(O)CC/C(C)=C/Cc1cc(C(=O)O)ccc1O (racemic)
3,11.4 µM,C/C(=C\CC/C(C)=C/CCC1(C)C=Cc2cc(C(=O)O)ccc2O1)CC/C=C(\C)C(=O)O (racemic)
